Assay results reported in PubChem BioAssay AID651981 (The Scripps Research Institute Molecular Screening Center, 2013).
Activity calls are given as the source filed them. No rule for the calls is given here.

Experiments:
Experiment in all cases: PubChem AID 651981
[1] = target: Acyl-protein thioesterase 1 (Mus musculus) (UniProt P97823); conditions: BW5147 mouse T-cell proteome, ABPP-SILAC LC-MS ratio; LYPLA1; at 1 µM; stronger effect = lower value
[2] = tested on: LYPLA2; conditions: BW5147 mouse T-cell proteome, ABPP-SILAC LC-MS ratio, at 1 µM, stronger effect = lower value
[3] = tested on: ACOT1; conditions: BW5147 mouse T-cell proteome, ABPP-SILAC LC-MS ratio, at 1 µM, stronger effect = lower value
[4] = tested on: AADACL1; conditions: BW5147 mouse T-cell proteome, ABPP-SILAC LC-MS ratio, at 1 µM, stronger effect = lower value
[5] = tested on: PRCP; conditions: BW5147 mouse T-cell proteome, ABPP-SILAC LC-MS ratio, at 1 µM, stronger effect = lower value
[6] = tested on: ABHD12; conditions: BW5147 mouse T-cell proteome, ABPP-SILAC LC-MS ratio, at 1 µM, stronger effect = lower value
[7] = tested on: DPP8; conditions: BW5147 mouse T-cell proteome, ABPP-SILAC LC-MS ratio, at 1 µM, stronger effect = lower value
[8] = tested on: PNPLA7; conditions: BW5147 mouse T-cell proteome, ABPP-SILAC LC-MS ratio, at 1 µM, stronger effect = lower value
[9] = tested on: ESD; conditions: BW5147 mouse T-cell proteome, ABPP-SILAC LC-MS ratio, at 1 µM, stronger effect = lower value
[10] = tested on: DPP4; conditions: BW5147 mouse T-cell proteome, ABPP-SILAC LC-MS ratio, at 1 µM, stronger effect = lower value
[11] = tested on: PAFAH1B2; conditions: BW5147 mouse T-cell proteome, ABPP-SILAC LC-MS ratio, at 1 µM, stronger effect = lower value
[12] = target: Prolyl endopeptidase (Mus musculus) (UniProt Q9QUR6); conditions: BW5147 mouse T-cell proteome, ABPP-SILAC LC-MS ratio; PREP; at 1 µM; stronger effect = lower value
[13] = tested on: FASN; conditions: BW5147 mouse T-cell proteome, ABPP-SILAC LC-MS ratio, at 1 µM, stronger effect = lower value
[14] = tested on: ACOT2; conditions: BW5147 mouse T-cell proteome, ABPP-SILAC LC-MS ratio, at 1 µM, stronger effect = lower value
[15] = tested on: TPP2; conditions: BW5147 mouse T-cell proteome, ABPP-SILAC LC-MS ratio, at 1 µM, stronger effect = lower value
[16] = tested on: PPME1; conditions: BW5147 mouse T-cell proteome, ABPP-SILAC LC-MS ratio, at 1 µM, stronger effect = lower value
[17] = tested on: APEH; conditions: BW5147 mouse T-cell proteome, ABPP-SILAC LC-MS ratio, at 1 µM, stronger effect = lower value
[18] = tested on: LIPE; conditions: BW5147 mouse T-cell proteome, ABPP-SILAC LC-MS ratio, at 1 µM, stronger effect = lower value
[19] = tested on: PNPLA6; conditions: BW5147 mouse T-cell proteome, ABPP-SILAC LC-MS ratio, at 1 µM, stronger effect = lower value
[20] = tested on: SEC23IP; conditions: BW5147 mouse T-cell proteome, ABPP-SILAC LC-MS ratio, at 1 µM, stronger effect = lower value
[21] = tested on: DPP9; conditions: BW5147 mouse T-cell proteome, ABPP-SILAC LC-MS ratio, at 1 µM, stronger effect = lower value
[22] = target: Monoacylglycerol lipase ABHD6 (Mus musculus) (UniProt Q8R2Y0); conditions: BW5147 mouse T-cell proteome, ABPP-SILAC LC-MS ratio, at 1 µM, stronger effect = lower value
[23] = tested on: PAFAH1B3; conditions: BW5147 mouse T-cell proteome, ABPP-SILAC LC-MS ratio, at 1 µM, stronger effect = lower value
[24] = tested on: FAAH; conditions: BW5147 mouse T-cell proteome, ABPP-SILAC LC-MS ratio, at 1 µM, stronger effect = lower value
[25] = target: Platelet-activating factor acetylhydrolase 2, cytoplasmic (Mus musculus) (UniProt Q8VDG7); conditions: BW5147 mouse T-cell proteome, ABPP-SILAC LC-MS ratio; PAFAH2; at 1 µM; stronger effect = lower value
Sequence of Platelet-activating factor acetylhydrolase 2, cytoplasmic (Mus musculus) (Q8VDG7 whole entry, looked up): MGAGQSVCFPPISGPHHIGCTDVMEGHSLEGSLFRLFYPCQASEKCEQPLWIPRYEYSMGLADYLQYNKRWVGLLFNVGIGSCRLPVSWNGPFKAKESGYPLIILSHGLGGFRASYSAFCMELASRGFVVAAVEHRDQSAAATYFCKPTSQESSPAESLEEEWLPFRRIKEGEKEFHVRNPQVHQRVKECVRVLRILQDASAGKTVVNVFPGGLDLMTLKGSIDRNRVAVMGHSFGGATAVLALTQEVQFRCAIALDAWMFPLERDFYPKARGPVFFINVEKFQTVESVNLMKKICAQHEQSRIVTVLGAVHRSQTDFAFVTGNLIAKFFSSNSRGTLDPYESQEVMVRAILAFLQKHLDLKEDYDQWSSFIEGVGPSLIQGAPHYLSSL

Sequence of Monoacylglycerol lipase ABHD6 (Mus musculus) (Q8R2Y0 whole entry, looked up): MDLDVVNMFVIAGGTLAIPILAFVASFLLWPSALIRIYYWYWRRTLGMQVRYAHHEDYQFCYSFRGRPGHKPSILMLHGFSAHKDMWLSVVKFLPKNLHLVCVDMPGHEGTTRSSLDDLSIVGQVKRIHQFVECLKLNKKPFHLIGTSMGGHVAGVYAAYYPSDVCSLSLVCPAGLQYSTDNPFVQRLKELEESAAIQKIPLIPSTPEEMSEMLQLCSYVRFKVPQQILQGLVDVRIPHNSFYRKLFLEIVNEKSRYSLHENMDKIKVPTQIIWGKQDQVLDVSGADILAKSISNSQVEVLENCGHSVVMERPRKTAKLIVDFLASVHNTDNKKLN
Sequence of Acyl-protein thioesterase 1 (Mus musculus) (P97823 whole entry, looked up): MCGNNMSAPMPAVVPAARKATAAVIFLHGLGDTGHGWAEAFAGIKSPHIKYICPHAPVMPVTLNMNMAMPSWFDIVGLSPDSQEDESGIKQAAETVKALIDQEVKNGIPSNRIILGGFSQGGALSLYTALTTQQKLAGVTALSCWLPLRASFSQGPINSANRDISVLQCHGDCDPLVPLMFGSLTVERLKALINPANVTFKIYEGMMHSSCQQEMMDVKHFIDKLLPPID
Sequence of Prolyl endopeptidase (Mus musculus) (Q9QUR6 whole entry, looked up): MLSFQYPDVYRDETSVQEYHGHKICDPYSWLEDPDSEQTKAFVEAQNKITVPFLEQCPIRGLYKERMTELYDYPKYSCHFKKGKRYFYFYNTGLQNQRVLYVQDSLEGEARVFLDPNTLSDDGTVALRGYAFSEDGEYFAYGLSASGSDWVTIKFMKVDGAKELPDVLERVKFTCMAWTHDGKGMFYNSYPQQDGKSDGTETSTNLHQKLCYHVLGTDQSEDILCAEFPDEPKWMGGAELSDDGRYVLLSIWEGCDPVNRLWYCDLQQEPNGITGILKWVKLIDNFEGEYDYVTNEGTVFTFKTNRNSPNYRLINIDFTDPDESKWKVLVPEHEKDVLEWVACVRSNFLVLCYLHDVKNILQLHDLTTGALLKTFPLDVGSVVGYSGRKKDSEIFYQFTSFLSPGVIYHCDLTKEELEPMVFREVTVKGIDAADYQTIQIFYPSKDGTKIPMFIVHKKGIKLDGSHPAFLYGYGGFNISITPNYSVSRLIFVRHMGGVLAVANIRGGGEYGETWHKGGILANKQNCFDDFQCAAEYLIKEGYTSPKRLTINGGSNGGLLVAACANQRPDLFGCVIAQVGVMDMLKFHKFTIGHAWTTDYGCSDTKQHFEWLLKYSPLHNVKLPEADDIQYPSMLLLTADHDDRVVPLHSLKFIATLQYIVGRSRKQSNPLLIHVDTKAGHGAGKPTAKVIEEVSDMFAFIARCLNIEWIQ

COc1ccc(N2CCN(C(=O)c3cc4c(s3)-c3ccccc3S(=O)(=O)C4)CC2)cc1
remaining activity ratio (inhibitor/DMSO) [1]: 1.08 (inactive) | remaining activity ratio (inhibitor/DMSO) [2]: 0.01 | remaining activity ratio (inhibitor/DMSO) [3]: 1.23 (inactive) | remaining activity ratio (inhibitor/DMSO) [4]: 1.46 (inactive) | remaining activity ratio (inhibitor/DMSO) [5]: 1.56 (inactive) | remaining activity ratio (inhibitor/DMSO) [6]: 1.21 (inactive) | remaining activity ratio (inhibitor/DMSO) [7]: 1.1 (inactive) | remaining activity ratio (inhibitor/DMSO) [8]: 1.12 (inactive) | remaining activity ratio (inhibitor/DMSO) [9]: 1.24 (inactive) | remaining activity ratio (inhibitor/DMSO) [10]: 1.17 (inactive) | remaining activity ratio (inhibitor/DMSO) [11]: 1.23 (inactive) | remaining activity ratio (inhibitor/DMSO) [12]: 1.12 (inactive) | remaining activity ratio (inhibitor/DMSO) [13]: 1.14 (inactive) | remaining activity ratio (inhibitor/DMSO) [14]: 1.25 (inactive) | remaining activity ratio (inhibitor/DMSO) [15]: 1.2 (inactive) | remaining activity ratio (inhibitor/DMSO) [16]: 1.34 (inactive) | remaining activity ratio (inhibitor/DMSO) [17]: 1.11 (inactive) | remaining activity ratio (inhibitor/DMSO) [18]: 0.88 (inactive) | remaining activity ratio (inhibitor/DMSO) [19]: 1.03 (inactive) | remaining activity ratio (inhibitor/DMSO) [20]: 1.53 (inactive) | remaining activity ratio (inhibitor/DMSO) [21]: 1.12 (inactive) | remaining activity ratio (inhibitor/DMSO) [22]: 1.06 (inactive) | remaining activity ratio (inhibitor/DMSO) [23]: 1.09 (inactive) | remaining activity ratio (inhibitor/DMSO) [24]: 1.25 (inactive) | remaining activity ratio (inhibitor/DMSO) [25]: 1.14 (inactive)
